Laboratory results as given in patent US6124322A, “Intravenous form of thalidomide for treating immunological diseases” (Gruenenthal GmbH, priority 1997, dated 2000).
Converted amounts (≈) assume the structure as drawn.

Tests used:
aphthous stomatitis = conditions: treatment of aphthous stomatitis; cited from earlier work
[1] = hydrolysis in aqueous solution; format: physicochemical; conditions: aqueous solutions, pH not restricted
Description: The enantiomers of thalidomide have a solubility in water which is higher by a factor of 6 than that of the racemate.

[2] = Arch. Pharm. 321, 371 (1988); cited from earlier work
[3] = system: cutaneous lupus erythematosus, pyoderma gangrenosum, orogenital ulcers with morbus Behcet, ulcerations in HIV-infected patients; conditions: cited from earlier work

O=C1CCC(N2C(=O)c3ccccc3C2=O)C(=O)N1 (racemic) [thalidomide]
efficacy in aphthous stomatitis versus classical immunosuppressants (aphthous stomatitis): superior to classical immunosuppressants | hydrolysis in aqueous solution [1]: tendency of thalidomide to undergo spontaneous hydrolysis | solubility in water [2]: 0.012 mg/mL (≈ 46.5 µM) | efficacy without general immunosuppression [3]: good efficacy without resulting in a general immunosuppression
